In US10570122B2, “Compounds with anti-tumoral activity” (AB Science, priority 2015, dated 2020):

Tests used:
H1299 = experiment: CellTiter-Blue cell-based survival/proliferation assay, H1299; conditions: Homo sapiens, NCI-H1299; H1299 lung tumor cell line, 48 h
Outline: (§1)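 Tenfold compound dilutions (0–10 μM) were added to 1·10^4 cells/well. Plates incubated 48 h at 37 °C. CellTiter-Blue reduction (4 h, 37 °C) was read as fluorescence at 590 nm, background-corrected with a cell-free blank.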

HL60 = experiment: CellTiter-Blue cell-based survival/proliferation assay, HL60; conditions: Homo sapiens, HL-60, Leukemia cell line HL60, 48 h, read-out: Anti-tumoral activity (measured IC50) HL60
Outline: as §1

CALU6 = experiment: CellTiter-Blue cell-based survival/proliferation assay, CALU6; conditions: Homo sapiens, Calu-6; CALU6 lung tumor cell line, 48 h
Outline: as §1

BT20 = experiment: CellTiter-Blue cell-based survival/proliferation assay, BT20; conditions: Homo sapiens, BT-20; BT20 breast tumor cell line, 48 h
Outline: as §1

A549 = experiment: CellTiter-Blue cell-based survival/proliferation assay, A549; conditions: Homo sapiens; A549 lung tumor cell line, 48 h
Outline: as §1

PANC1 = experiment: CellTiter-Blue cell-based survival/proliferation assay, PANC1; conditions: Homo sapiens, PANC-1; PANC_1 pancreas tumor cell line, 48 h
Outline: as §1

HEP2 = experiment: CellTiter-Blue cell-based survival/proliferation assay, HEP2; conditions: Homo sapiens, HEp-2; HEP2 head & neck tumor cell line, 48 h
Outline: as §1

HEPG2 = experiment: CellTiter-Blue cell-based survival/proliferation assay, HEPG2; conditions: Homo sapiens; HEPG2 liver tumor cell line, 48 h
Outline: as §1

PC3 = experiment: CellTiter-Blue cell-based survival/proliferation assay, PC3; conditions: Homo sapiens, PC-3; PC3 prostate tumor cell line, 48 h
Outline: as §1

ACHN = experiment: CellTiter-Blue cell-based survival/proliferation assay, ACHN; conditions: Homo sapiens; ACHN kidney tumor cell line, 48 h
Outline: as §1

[1] = tested on: panel of about 34 human tumor cell lines; experiment: Cell-based proliferation screening on panel of tumor cell lines; conditions: solid tumor cell line, cell line unknown, 48 h, read-out: IC50, solid tumor cell line of column 6 (last section of Table 3)
Outline: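 CellTiter-Blue survival assay with 1·10^4 cells/well, each line treated 48 h at 37° C with 1/10 serial dilutions from 0 to 10 μM. Resorufin formed during a 4 h reagent incubation is read by fluorescence at 590 nm. A cell-free blank serves as background.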

SW579 = experiment: CellTiter-Blue cell-based survival/proliferation assay, SW579; conditions: Homo sapiens; SW579 head & neck tumor cell line, 48 h
Outline: as §1

MESSA = experiment: CellTiter-Blue cell-based survival/proliferation assay, MESSA; conditions: Homo sapiens, MES-SA; MESSA ovary tumor cell line, 48 h
Outline: as §1

CLS354 = experiment: CellTiter-Blue cell-based survival/proliferation assay, CLS354; conditions: Homo sapiens, CLS-354; CLS354_4 head & neck tumor cell line, 48 h
Outline: as §1

KARPAS299 = experiment: CellTiter-Blue cell-based survival/proliferation assay, KARPAS299; conditions: Homo sapiens, KARPAS-299, Lymphoma cell line KARPAS299, 48 h, read-out: Anti-tumoral activity (measured IC50) KARPAS299
Outline: as §1

DU145 = experiment: CellTiter-Blue cell-based survival/proliferation assay, DU145; conditions: Homo sapiens, DU-145; DU145 prostate tumor cell line, 48 h
Outline: as §1

HUT78 = experiment: CellTiter-Blue cell-based survival/proliferation assay, HUT78; conditions: Homo sapiens, Lymphoma cell line HUT78, 48 h, read-out: Anti-tumoral activity (measured IC50) HUT78
Outline: as §1

PLCPRF5 = experiment: CellTiter-Blue cell-based survival/proliferation assay, PLCPRF5; conditions: Homo sapiens, PLC-PRF-5; PLC_PRF5 liver tumor cell line, 48 h
Outline: as §1

A498 = experiment: CellTiter-Blue cell-based survival/proliferation assay, A498; conditions: Homo sapiens; A498 kidney tumor cell line, 48 h
Outline: as §1

DLD1 = experiment: CellTiter-Blue cell-based survival/proliferation assay, DLD1; conditions: Homo sapiens, DLD-1; DLD_1 colorectal tumor cell line, 48 h
Outline: as §1

OPM2 = experiment: CellTiter-Blue cell-based survival/proliferation assay, OPM2; conditions: Homo sapiens, OPM-2, Myeloma cell line OPM2, 48 h, read-out: Anti-tumoral activity (measured IC50) OPM2
Outline: as §1

TOV112D = experiment: CellTiter-Blue cell-based survival/proliferation assay, TOV112D; conditions: Homo sapiens; TOV112D ovary tumor cell line, 48 h
Outline: as §1

HGC27 = experiment: CellTiter-Blue cell-based survival/proliferation assay, HGC27; conditions: Homo sapiens, HGC-27; HGC27 stomach tumor cell line, 48 h
Outline: as §1

HCT116 = experiment: CellTiter-Blue cell-based survival/proliferation assay, HCT116; conditions: Homo sapiens, HCT-116; HCT116 colorectal tumor cell line, 48 h
Outline: as §1

BXPC3 = experiment: CellTiter-Blue cell-based survival/proliferation assay, BXPC3; conditions: Homo sapiens, BXPC-3; BXPC3 pancreas tumor cell line, 48 h
Outline: as §1

AGS = experiment: CellTiter-Blue cell-based survival/proliferation assay, AGS; conditions: Homo sapiens; AGS stomach tumor cell line, 48 h
Outline: as §1

REC1 = experiment: CellTiter-Blue cell-based survival/proliferation assay, REC1; conditions: Homo sapiens, Lymphoma cell line REC1, 48 h, read-out: Anti-tumoral activity (measured IC50) REC1
Outline: as §1

MDAMB231 = experiment: CellTiter-Blue cell-based survival/proliferation assay, MDAMB231; conditions: Homo sapiens, MDA-MB-231; MDAMB231 breast tumor cell line, 48 h
Outline: as §1

Structure (SMILES)	IC50 (H1299) [nM]	IC50 (HL60) [nM]	IC50 (CALU6) [nM]	IC50 (BT20) [nM]	IC50 (A549) [nM]	IC50 (PANC1) [nM]	IC50 (HEP2) [nM]	IC50 (HEPG2) [nM]	IC50 (PC3) [nM]	IC50 (ACHN) [nM]	IC50 [1] [nM]	IC50 (SW579) [nM]	IC50 (MESSA) [nM]	IC50 (CLS354) [nM]	IC50 (KARPAS299) [nM]	IC50 (DU145) [nM]	IC50 (HUT78) [nM]	IC50 (PLCPRF5) [nM]	IC50 (A498) [nM]	IC50 (DLD1) [nM]	also measured
CCOCc1ccc(C)c(Nc2ncc(-c3ccc(-n4cncn4)cc3)o2)c1 [Example 034, (5-Ethoxymethyl-2-methyl-phenyl)-[5-(4-[1,2,4]triazol-1-yl-phenyl)-oxazol-2-yl]-amine]	> 1000	> 1000	> 1000	> 1000	> 1000	> 1000	500 to 1000	> 1000	> 1000	> 1000	> 1000	> 1000	> 1000	500 to 1000	100 to 500	> 1000	100 to 500	> 1000	> 1000	> 1000	IC50 (OPM2): > 1000 nM; IC50 (TOV112D): 500 to 1000 nM; IC50 (HGC27): > 1000 nM; IC50 (HCT116): > 1000 nM; IC50 (BXPC3): > 1000 nM; IC50 (AGS): > 1000 nM; IC50 (REC1): 100 to 500 nM; IC50 (MDAMB231): > 1000 nM
CCOCc1ccc(C)c(Nc2ncc(-c3ccc(-n4ccnn4)cc3)o2)c1 [Example 035, (5-Ethoxymethyl-2-methyl-phenyl)-[5-(4-[1,2,3]triazol-1-yl-phenyl)-oxazol-2-yl]-amine]	> 1000	> 1000	> 1000	> 1000	> 1000	> 1000	> 1000	> 1000	> 1000	> 1000	> 1000	> 1000	> 1000	> 1000	500 to 1000	> 1000	500 to 1000	> 1000	> 1000	> 1000	IC50 (OPM2): > 1000 nM; IC50 (TOV112D): 500 to 1000 nM; IC50 (HGC27): > 1000 nM; IC50 (HCT116): > 1000 nM; IC50 (BXPC3): > 1000 nM; IC50 (AGS): > 1000 nM; IC50 (REC1): 500 to 1000 nM; IC50 (MDAMB231): > 1000 nM
CCOCc1ccc(C)c(Nc2ncc(-c3ccc(-n4nccn4)cc3)o2)c1 [Example 036, (5-Ethoxymethyl-2-methyl-phenyl)-[5-(4-[1,2,3]triazol-2-yl-phenyl)-oxazol-2-yl]-amine]	500 to 1000	100 to 500	500 to 1000	500 to 1000	> 1000	> 1000	100 to 500	100 to 500	100 to 500	100 to 500	100 to 500	> 1000	> 1000	≤ 100	≤ 100	> 1000	≤ 100	> 1000	> 1000	> 1000	IC50 (OPM2): 100 to 500 nM; IC50 (TOV112D): ≤ 100 nM; IC50 (HGC27): ≤ 100 nM; IC50 (HCT116): > 1000 nM; IC50 (BXPC3): > 1000 nM; IC50 (AGS): ≤ 100 nM; IC50 (REC1): ≤ 100 nM; IC50 (MDAMB231): > 1000 nM
CCOCc1ccc(C)c(Nc2ncc(-c3ccc(-c4nccs4)cc3)o2)c1 [Example 038, (5-Ethoxymethyl-2-methyl-phenyl)-[5-(4-thiazol-2-yl-phenyl)-oxazol-2-yl]-amine]	> 1000	100 to 500	> 1000	> 1000	> 1000	> 1000	500 to 1000	> 1000	> 1000	> 1000	500 to 1000	> 1000	> 1000	> 1000	> 1000	> 1000	> 1000	> 1000	> 1000	> 1000	IC50 (OPM2): 100 to 500 nM; IC50 (TOV112D): > 1000 nM; IC50 (HGC27): > 1000 nM; IC50 (HCT116): > 1000 nM; IC50 (BXPC3): > 1000 nM; IC50 (AGS): > 1000 nM; IC50 (REC1): 100 to 500 nM; IC50 (MDAMB231): > 1000 nM
CCOCc1ccc(C)c(Nc2ncc(-c3ccc(-n4ccc(C)n4)cc3)o2)c1 [Example 039, (5-Ethoxymethyl-2-methyl-phenyl)-{5-[4-(3-methyl-pyrazol-1-yl)-phenyl]-oxazol-2-yl}-amine]	> 1000	500 to 1000	> 1000	> 1000	> 1000	> 1000	> 1000	> 1000	> 1000	> 1000	> 1000	> 1000	> 1000	> 1000	500 to 1000	> 1000	500 to 1000	> 1000	> 1000	> 1000	IC50 (OPM2): > 1000 nM; IC50 (TOV112D): > 1000 nM; IC50 (HGC27): > 1000 nM; IC50 (HCT116): > 1000 nM; IC50 (BXPC3): > 1000 nM; IC50 (AGS): > 1000 nM; IC50 (REC1): 500 to 1000 nM; IC50 (MDAMB231): > 1000 nM
